{"source": "patent US20080177075A1", "about": "“Compositions For Progeny Gender Control” (AQ+PLC Stephen Mabbott Associates, priority 2004, published 2008)", "description": "Suitable aqueous based compositions can be prepared by using an intermediate diluent such as a polyol, including glycols, preferably propylene glycol, glycerine, or sorbitol, and a wetting agent.", "data": [{"smiles": "Oc1cccc2cccnc12", "note": "[8-hydroxyquinoline]", "values": [{"measurement": "solubility in aqueous solution", "result": "generally insoluble or only poorly soluble"}]}]}
